Experimental findings from patent US8435969B2, “Method and compositions for treating hematological malignancies” (Gilead Sciences, Inc., priority 2006, dated 2013) are described below.

The conditions of series [1]: dog, in vivo, iv, 0.2 mg/kg.
Description: Distribution of Prodrugs between PBMCs and Plasma in Dogs • Dogs were administered various prodrugs of cpr-PMEDAP as 0.2 mg/kg 30 minute IV infusions. […] Alanine was the L isomer. • Blood was collected into potassium EDTA and separated by centrifugation. Primary blood mononuclear cells (PBMCs) were collected using CPT tubes (sodium citrate). • For analysis, plasma samples were precipitated by addition of 100 μL acetonitirile containing internal standards (D4AP and TDF) to 100 μL of plasma for prodrug analysis. After protein precipitation by centrifugation, 100 μA was transferred into another tube to be dried and then reconstituted in 100 μL water with 0.2% formic acid. An aliquot of 20 μL was injected onto the column for LC/MS/MS analysis. Analysis was done using a 150×2.0 mm, 4 μm Synergi Fusion-RP 80A column (Phenomenex) and a multistage linear gradient from 0.5 to 99% acetonitrile in the presence of 0.2% formic acid at 0.25 mL/min. Analytes were detected using a Sciex API-4000 mass spectrometer using electrospray ionization in positive MRM mode. […] Separate aliquots of cells from each time point resuspended in 100% serum were used to establish the cell quantities in each sample. Cell samples were normalized to 15×10^6 cells per sample. Varying degrees of hemolyses have been observed. […] 20 μL was injected for LC/MS/MS analysis using a 50×2.0 mm, 4 μm Synergi Hydro-RP 80A column (Phenomenex) and a multistage linear gradient from 0 to 95% acetonitrile in the presence of 0.2% formic acid at 1.0 mL/min. Analytes were detected using a Sciex API-4000 mass spectrometer using electrospray ionization in positive MRM mode. • After drying, samples for dephosphorylation were treated with 1 U of calf intestinal phosphatase (alkaline phosphatase, Sigma) for 2 h in manufacturer provided buffer. Samples were then adjusted to 60% acetonitrile dried and resuspended in 60% acetonitrile containing internal standards (TDF and D4AP) and analyzed for cpr-PMEDAP as described for direct PBMC analysis.
The nature of series [2]: Solubility of the succinate salt. The format is physicochemical. The settings on record: pH 4.2-4.7.
Series [3] is described as follows: Storage stability in aqueous solution. The format is physicochemical. The conditions noted are these: 60 hours. The source says:
Parenteral (sterile aqueous) solutions of the organic acid salts of compound 1 optionally comprise a stabilizing amount of carbohydrate, typically a saccharide (mono, di or polysaccharides), glycoside or sugar alcohol (alditols). Polysaccharides should be biodegradable upon parenteral injection or infusion and include dextrins and starches, typically 3-10 units. Representative carbohydrates include hexoses, aldoses, aldohexoses, aldotrioses (e.g. glyceraldehyde), aldotetroses (e.g. erythrose), aldopentoses (e.g. arabinose), ketoses, ketohexose (e.g. fructose), ketopentoses (e.g. ribulose), maltose, sucrose, lactose, ribose, xylose, lyxose, allose, altrose, glucose, mannose, gulose, idose, galactose and talose. Of particular interest are carbohydrates conventionally used in parenteral formulations, e.g., mannitol or dextrose. The optical character of the carbohydrate is not critical, but it is desirable for the configuration to be such that the carbohydrate is biodegradable upon parenteral administration. […] On the other hand, storage in buffered solutions at pH 2, 7 and 9 under the same conditions lead to substantial degradation of compound 1: About 100%,18% and 76% by weight, respectively.

Another series is described as follows: Hygroscopicity. The format is physicochemical. The conditions noted are these: solid form.

As to `C[C@H](NP(=O)(COCCn1cnc2c(NC3CC3)nc(N)nc21)Oc1ccccc1)C(=O)OC(C)(C)C` (stereo partly drawn) [MonoAlatBu], in series [1], the “PBMC to Plasma ratio” value was 12.
Take `C[C@H](NP(=O)(COCCn1cnc2c(NC3CC3)nc(N)nc21)Oc1ccccc1)C(=O)OC(C)(C)C` (single isomer, unassigned) [MonoAlatBu(A)]: the “PBMC to Plasma ratio” value in series [1] is 19.
For the compound `CC(C)OC(=O)[C@H](C)NP(=O)(COCCn1cnc2c(NC3CC3)nc(N)nc21)Oc1ccccc1` (stereo partly drawn) [MonoAlaiPr], the “PBMC to Plasma ratio” value in series [1] was 17.
`CCOC(=O)[C@H](C)NP(=O)(COCCn1cnc2c(NC3CC3)nc(N)nc21)N[C@@H](C)C(=O)OCC` [compound 1 succinate]: in series [2], the solubility is above 39 mg/mL. For the same compound, the Degradation on storage result in series [3] (5% dextrose (by weight of solution; pH about 4.2, unbuffered), 40° C.) is listed as “without significant degradation”; in series [3] (buffered solution pH 2, 40° C.), “About 100 % by weight”; in series [3] (buffered solution pH 9, 40° C.) it was around 76 % by weight.
`CCOC(=O)C(C)NP(=O)(COCCn1cnc2c(NC3CC3)nc(N)nc21)NC(C)C(=O)OCC` (stereo not drawn) [Compound 1]: the Hygroscopicity entry in “Hygroscopicity” is reported as “hygroscopic”.
On to `CC(C)OC(=O)[C@H](C)NP(=O)(COCCn1cnc2c(NC3CC3)nc(N)nc21)N[C@@H](C)C(=O)OC(C)C` [BisAlaiPr], for which the “PBMC to Plasma ratio” value in series [1] is on record as 1.2.
